Source: patent publication US4738971A, “N-aryl-1,2-dihydro-4-substituted-1-alkyl-2-oxo-quinoline-3-carboxamides” (priority 1981, dated 1988)
Where a name gives a salt, the structure may show the parent alone.

How the values were obtained:
[1] = system: carrageenan-induced edema; experiment: carrageenan edema test in rats; assay type: in vivo, rat (female Sprague-Dawley); settings: for significant potentiation of the carrageenan edema: dose within the range 10-160 mg/kg p.o.; for change in vivo at 80 mg/kg: Rattus norvegicus, po, 80 mg/kg p.o., 30 min before carrageenan, edema weight 3 h after, vs control, preliminary, read-out: Potentiation of the carrageenan edema, %
Excerpt: Another test, in which the effect of a drug corresponds to the effects obtained in the tests mentioned above, and which can therefore also be used, is the well-established carrageenan edema test in rats (5). Comparative evaluation of compounds of the present invention in the three tests mentioned has shown that compounds which increase the extent of the delayed hypersensitivity reaction in the pertussis vaccine pleurisy test and in the adjuvant arthritis test also increase the extent of carrageenan-induced edema in the carrageenan edema test, thus providing a further tool for the determination of enhancement of cell-mediated immunity.
This example illustrates the effect of the compounds of the general formula I in the carrageenan edema test in rats.
A modification of a method described in (5) was used. Female Sprague-Dawleyrats weighing 110-120 g was used. At least 10 animals were used in each experimental group. Foot edema was induced by injecting carrageenan in 0.9% NaCl into the plantar surface of the right hind paw of the rats.
The substances suspended in aqueous methocel solution 10 ml/kg were administered intragastrically 30 minutes before the injection of carrageenan. The control groups were given methocel solution 10 ml/kg.
Three hours after carrageenan injection the animals were killed. The hind feet were cut off and weighed. The difference in weight of the injected right paw and the uninjected left paw was called edema weight.
The effect of the substances was assessed by the edema weight expressed in percent after comparison with the control groups.

[2] = system: delayed hypersensitivity reaction (pertussis vaccine pleurisy); experiment: pertussis vaccine pleurisy test in rats; assay type: in vivo, rat (male Sprague-Dawley); settings: 10 mg/kg p.o.; for change in vivo at 10 mg/kg: Rattus norvegicus, po, 48 h, once daily day 10 to day 13, vs control, preliminary, read-out: Enhancement of the delayed hypersensitivity reaction assessed by the exudate vol.
Excerpt: A useful test for the evaluation of the effect of chemical compounds on the immune system is the pertussis vaccine pleurisy test in rats. Compounds which enhance the response in this delayed hypersensitivity reaction are considered to stimulate cell-mediated immunity (4).
This example illustrates the effect of the compounds of the general formula I in the pertussis vaccine pleurisy test.
Pertussis vaccine pleurisy is a useful test for the evaluation of the effect of chemical compounds on the immune system. Compounds which enhance the response in this delayed hypersensitivity reaction are considered to stimulate cell-mediated immunity.
A modification of a method described in (4) was used. Male Sprague-Dawley rats weighing 250-275 g were used. At least ten animals were used in each group.
Equal volumes of Freund's incomplete adjuvant and a suspension of heat killed Bordetella pertussis organisms were mixed. To sensitize animals, day 0, 0.2 ml of a mixture containing 0.036×10^10 organisms/ml was injected into the dorsal surface of one hind paw and one forepaw.
The animals were challenged on day 12 with 0.1 ml of a mixture containing 0.25×10^10 organisms/ml that was injected intrapleurally. 48 hours after challenge, day 14, the volume of the exudate in the pleural cavity was measured.
The substances suspended in aqueous methocel solution 10 ml/kg were given intragastrically once daily from day 10 to day 13. The control groups were given methocel solution 10 ml/kg.
The effect of the substances was assessed by the exudate volume expressed in percent after comparison with the control groups.

| Compound | significant potentiation of the carrageenan edema [1] | significant enhancing effect in the pertussis vaccine pleurisy test [2] | change in vivo at 80 mg/kg [1] [%] | change in vivo at 10 mg/kg [2] [%] |
| --- | --- | --- | --- | --- |
| CCn1c(=O)c(C(=O)N(C)c2ccccc2)c(O)c2ccccc21 [20:10, N-methyl-N-phenyl-1,2-dihydro-1-ethyl-4-hydroxy-2-oxo-quinoline-3-carboxamide] | potentiate significantly | significant enhancing effect |  |  |
| CN(C)c1ccc2c(c1)c(O)c(C(=O)Nc1ccccc1)c(=O)n2C [1:5, N-phenyl-1,2-dihydro-6-dimethylamino-4-hydroxy-1-methyl-2-oxo-quinoline-3-carboxamide] |  |  | 28 | 47 |
| CCCCN(C(=O)c1c(O)c2ccccc2n(C)c1=O)c1ccccc1 [21:8, N-(n-butyl)-N-phenyl-1,2-dihydro-4-hydroxy-1-methyl-2-oxo-quinoline-3-carboxamide] | potentiate significantly | significant enhancing effect |  |  |
| CN(C(=O)c1c(O)c2cccc3c2n(c1=O)CC3)c1ccccc1 [21:3, N-methyl-N-phenyl-1,2-dihydro-1,8-ethylene-4-hydroxy-2-oxo-quinoline-3-carboxamide] | potentiate significantly | significant enhancing effect |  |  |
| O=C(Nc1ccc(N2CCCC2)cc1)c1c(O)c2cccc3c2n(c1=O)CC3 [12:7, N-(4-pyrrolidinophenyl)-1,2-dihydro-1,8-ethylene-4-hydroxy-2-oxo-quinoline-3-carboxamide, hydrochloride] | potentiate significantly | significant enhancing effect |  |  |
| C=CCn1c(=O)c(C(=O)N(C)c2ccc(N(C)C)cc2)c(O)c2ccccc21 [20:39, N-(4-dimethylaminophenyl)-N-methyl-1-allyl-1,2-dihydro-4-hydroxy-2-oxo-quinoline-3-carboxamide] | potentiate significantly | significant enhancing effect |  |  |
| CCCn1c(=O)c(C(=O)Nc2ccccn2)c(O)c2ccccc21 [7:10, N-/2-pyridyl/-1,2-dihydro-4-hydroxy-2-oxo-1-n-propyl-quinoline-3-carboxamide] |  |  | 24 | 41 |
| C=CCN(C(=O)c1c(O)c2ccccc2n(C)c1=O)c1ccccc1 [21:12, N-allyl-N-phenyl-1,2-dihydro-4-hydroxy-1-methyl-2-oxo-quinoline-3-carboxamide] | potentiate significantly | significant enhancing effect |  |  |
| Cn1c(=O)c(C(=O)Nc2ccccc2Cl)c(O)c2ccccc21 [1:8, N-/2-chlorophenyl/-1,2-dihydro-4-hydroxy-1-methyl-2-oxo-quinoline-3-carboxamide] |  |  | 21 | 27 |
| COc1ccc2c(c1)c(O)c(C(=O)N(C)c1ccccc1)c(=O)n2C [20:5, N-methyl-N-phenyl-1,2-dihydro-4-hydroxy-6-methoxy-1-methyl-2-oxo-quinoline-3-carboxamide] | potentiate significantly | significant enhancing effect |  |  |
| CCOc1c(C(=O)Nc2ccc(N(C)C)cc2)c(=O)n2c3c(cccc13)CC2 [18:3, N-(4-dimethylaminophenyl)-1,2-dihydro-4-ethoxy-1,8-ethylene-2-oxo-quinoline-3-carboxamide] | potentiate significantly |  |  |  |
| Cc1ccc2c(c1)c(O)c(C(=O)Nc1ccccc1)c(=O)n2C [1:46, N-phenyl-1,2-dihydro-1,6-dimethyl-4-hydroxy-2-oxo-quinoline-3-carboxamide] |  |  | 32 |  |
| CN(C)c1ccc(NC(=O)c2c(O)c3cccc4c3n(c2=O)CC4)cc1 [12:8, N-(4-dimethylaminophenyl)-1,2-dihydro-1,8-ethylene-4-hydroxy-2-oxo-quinoline-3-carboxamide] |  |  | 51 | 29 |
| COc1c(C(=O)Nc2ccccc2)c(=O)n2c3c(cccc13)CC2 [18:1, N-phenyl-1,2-dihydro-1,8-ethylene-4-methoxy-2-oxo-quinoline-3-carboxamide] | potentiate significantly |  |  |  |
| Cc1csc(NC(=O)c2c(O)c3cc(N(C)C)cc4c3n(c2=O)CCC4)n1 [14:7, N-(4-methyl-2-thiazolyl)-1,2-dihydro-6-dimethylamino-4-hydroxy-2-oxo-1,8-trimethylene-quinoline-3-carboxamide] | potentiate significantly |  |  |  |
| COc1c(C(=O)Nc2nccs2)c(=O)n2c3c(cccc13)CC2 [16:1, N-(2-thiazolyl)-1,2-dihydro-1,8-ethylene-4-methoxy-2-oxo-quinoline-3-carboxamide] | potentiate significantly |  |  |  |
| Cn1c(=N)c(C(=O)Nc2ccccc2)c(O)c2ccccc21 [11:1, N-phenyl-1,2-dihydro-4-hydroxy-2-imino-1-methyl-quinoline-3-carboxamide] |  |  | 46 |  |
| COc1c(C(=O)Nc2ccc(N(C)C)cc2)c(=O)n(C)c2ccccc12 [6:3, N-(4-dimethylaminophenyl)-1,2-dihydro-4-methoxy-1-methyl-2-oxo-quinoline-3-carboxamide] |  |  | 32 |  |
| CC(C)Cn1c(=O)c(C(=O)Nc2ccccc2)c(O)c2ccccc21 [1:15, N-phenyl-1,2-dihydro-4-hydroxy-1-isobutyl-2-oxo-quinoline-3-carboxamide] |  |  | 30 |  |
| Cn1c(=O)c(C(=O)Nc2ccc(N)cc2)c(O)c2ccccc21 [8:1, N-(4-aminophenyl)-1,2-dihydro-4-hydroxy-1-methyl-2-oxo-quinoline-3-carboxamide] | potentiate significantly |  |  |  |
| CCNc1ccc(NC(=O)c2c(O)c3ccccc3n(C)c2=O)cc1 [1:45, N-(4-ethylaminophenyl)-1,2-dihydro-4-hydroxy-1-methyl-2-oxo-quinoline-3-carboxamide] |  |  | 47 |  |
| CNc1ccc(NC(=O)c2c(O)c3ccccc3n(C)c2=O)cc1 [1:21, N-/4-methylaminophenyl/-1,2-dihydro-4-hydroxy-1-methyl-2-oxo-quinoline-3-carboxamide] |  |  | 22 |  |
| CCN(CC)c1ccc(NC(=O)c2c(O)c3ccccc3n(C)c2=O)cc1 [1:23, N-/4-diethylaminophenyl/-1,2-dihydro-4-hydroxy-1-methyl-2-oxo-quinoline-3-carboxamide] |  |  | 29 |  |
| O=C(Nc1cccnn1)c1c(O)c2cc(O)cc3c2n(c1=O)CC3 [14:12, N-(3-pyridazinyl)-1,2-dihydro-4,6-dihydroxy-1,8-ethylene-2-oxo-quinoline-3-carboxamide] | potentiate significantly |  |  |  |
| Cn1c(=O)c(C(=O)Nc2ccccc2)c(O)c2ccc(Cl)cc21 [1:17, N-phenyl-7-chloro-1,2-dihydro-4-hydroxy-1-methyl-2-oxo-quinoline-3-carboxamide] |  |  | 43 |  |
| O=C(Nc1ccccc1)c1c(O)c2ccccc2n(-c2ccccc2)c1=O [1:3, N-1-diphenyl-1,2-dihydro-4-hydroxy-2-oxo-quinoline-3-carboxamide] |  |  | 41 |  |
| Cn1c(=O)c(C(=O)Nc2ccccc2)c(N)c2ccccc21 [10:1, N-phenyl-4-amino-1,2-dihydro-1-methyl-2-oxo-quinoline-3-carboxamide] |  |  | 36 |  |
